Laboratory results from US20110071158A1, “NEW COMPOUNDS” (BOEHRINGER INGELHEIM INTERNATIONAL GMBH, priority 2009, published 2011).

Experiments:
Assay type in all cases: biochemical
PTK2 enzyme [1] = target: T1, PTK2 enzyme (Homo sapiens, UniProt Q05397); assay: PTK2 enzyme test, Assay 2 (DELFIA, poly-Glu-Tyr substrate, antibody PT66); settings: Assay 2 (values marked *); 1 h pre-incubation, 0.5% DMSO
T1 construct: purchased Invitrogen PV3832
Source text: This test uses active PTK2 enzyme (Invitrogen Code PV3832) and poly-Glu-Tyr (4:1, Sigma P-0275) as the kinase substrate. The kinase activity is detected by means of the phosphorylation of the substrate in a DELFIA™ assay. The phosphorylated substrate is detected with the europium-labelled phosphotyrosine antibody PT66 (Perkin Elmer, No.: AD0040).
In order to determine concentration-activity curves with PTK2-inhibitors the compounds are serially diluted first of all in 10% DMSO/H2O and then in kinase dilution buffer (20 mM TRIS/HCl pH 7.5, 0.1 mM EDTA, 0.1 mM EGTA, 0.286 mM sodium orthovanadate, 10% glycerol with the addition of freshly prepared BSA (fraction V, 1 mg/mL) and DTT (1 mM)) and 10 μL of each dilution are dispensed per well in a 96-well microtitre plate (clear U-shaped base plate, Greiner No. 650101) (the inhibitors are tested in duplicates) and mixed with 10 μL/well of PTK2 kinase (0.01 μg/well). PTK2 kinase is diluted accordingly beforehand with kinase dilution buffer. The diluted PTK2 inhibitor and the PTK2 kinase are pre-incubated for 1 h at RT and shaken at 500 revolutions per min. Then 10 μL/well poly-Glu-Tyr substrate (25 μg/well poly-Glu-Tyr, 0.05 μg/well biotinylated poly-Glu-Tyr dissolved in 250 mM TRIS/HCl pH 7.5, 9 mM DTT) are added. The reaction is started by the addition of 20 μL of ATP Mix (30 mM TRIS/HCl pH 7.5, 0.02% Brij, 0.2 mM sodium orthovanadate, 10 mM magnesium acetate, 0.1 mM EGTA, 1× phosphatase inhibitor cocktail 1 (Sigma, No.: P2850), 50 μM ATP (Sigma, No.: A3377; 15 mM stock solution))—the final concentration of DMSO is 0.5%. After 1 h kinase reaction (the plates are shaken at 500 rpm), the reaction is stopped by the addition of 12 μL/well of 100 mM EDTA, pH 8, and shaken for a further 5 min at RT (500 U/min). 55 μL of the reaction mixture are transferred into a streptavidin plate (Strepta Well High Bind (transparent, 96-well) made by Roche, No.: 11989685001) and incubated for 1 h at RT (shaking at 500 rpm). Then the microtitre plate is washed five times with 200 μL/well D-PBS (Invitrogen, No. 14190). 100 μL of a solution containing DELFIA Eu-N1 Anti-Phosphotyrosine PT66 antibody (Perkin Elmer, No.: AD0040, diluted 1:9000 in DELFIA test buffer (Perkin Elmer, No.: 1244-111)) is then added and it is incubated for 1 h at RT (shaking at 500 rpm). Then the plate is washed five times with 200 μL/well DELFIA washing buffer (Perkin Elmer, No.: 1244-114), 200 μL/well strengthening solution (Perkin Elmer, No.: 1244-105) is added and the whole is incubated for 10 min at RT (shaking at 300 rpm).
The time-delayed europium fluorescence is then measured in a microtitre plate reader (Victor, Perkin Elmer). The positive control consists of wells that contain solvent (0.5% DMSO in test buffer) and display uninhibited kinase activity. Wells that contain test buffer instead of enzyme act as a control for the background kinase activity.
The IC50 values are determined from concentration-activity analyses by iterative calculation using a sigmoid curve analysis algorithm (FIFTY, based on Graph PAD Prism Version 3.03) with a variable Hill coefficient.

PTK2 enzyme [2] = target: T1, PTK2 enzyme; assay: PTK2 enzyme test, Assay 1 (DELFIA, poly-Glu-Tyr substrate, antibody PT60); settings: Assay 1 (values without *); 1 h pre-incubation, 2% DMSO
How it was run: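 Active PTK2 (0.01 µg/well) preincubated 1 h at RT with compound (duplicates, 2% DMSO final), then reacted 1 h at RT with poly(Glu,Tyr) 4:1 plus biotinylated poly(Glu,Tyr) and an ATP mix containing 50 μM ATP. EDTA-stopped, streptavidin-captured product detected by Eu-PT60 anti-phosphotyrosine DELFIA; IC50 by variable-Hill sigmoid fit.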

[3] = target: T2, Xenopus laevis Aurora B/INCENP complex (Xenopus laevis, UniProt Q6DE08); assay: Aurora-B kinase assay (radioactive enzyme inhibition)
T2 construct: equipped at the N-terminal position with a GST tag (amino acids 60-361); GST (N, cleaved yes); made in house; host or cells: E. coli BL21 (DE3)
Source text: A radioactive enzyme inhibition assay was developed using E. coli-expressed recombinant Xenopus laevis Aurora B wild-type protein equipped at the N-terminal position with a GST tag (amino acids 60-361) in a complex with Xenopus laevis INCENP (amino acids 790-847), which is obtained from bacteria and purified. In equivalent manner a Xenopus laevis Aurora B mutant (G96V) in a complex with Xenopus laevis INCENP^790-847 may also be used.
The coding sequence for Aurora-B^60-361 from Xenopus laevis is cloned into a modified version of pGEX-6T (Amersham Biotech) via BamHI and SalI cutting sites. The vector contains two cloning cassettes which are separated by a ribosomal binding site, allowing bi-cistronic expression. In this configuration Xenopus laevis Aurora B is expressed by the first cassette, and the Xenopus laevis INCENP^790-847 is expressed by the second cassette. The resulting vector is pAUB-IN^847.
First of all the E. coli strain BL21 (DE3) is co-transformed with pUBS520 helper plasmid and pAUB-IN^847, after which protein expression is induced using 0.3 mM IPTG at an OD600 of 0.45-0.7. The expression is then continued for approx. 12-16 h at 23-25° C. with agitation.
The bacteria are then removed by centrifuging and the pellet is lysed in lysis buffer (50 mM Tris/Cl pH 7.6, 300 mM NaCl, 1 mM DTT, 1 mM EDTA, 5% glycerol, Roche Complete Protease Inhibitor tablets) using ultrasound, using 20-30 mL lysis buffer per litre of E. coli culture. The lysed material is freed from debris by centrifugation (12000 rpm, 45-60 min, JA20 rotor). The supernatant is incubated with […] of equilibrated GST Sepharose Fast Flow (Amersham Biosciences) per litre of E. coli culture for 4-5 h at 4° C. Then the column material is washed with 30 volumes of lysis buffer and then equilibrated with 30 volumes of cleavage buffer (50 mM Tris/Cl pH 7.6, 150 mM NaCl, 1 mM DTT, 1 mM EDTA). To cleave the GST tag from Aurora B, 10 units of Prescission Protease (Amersham Biosciences) are used per milligram of substrate and the mixture is incubated for 16 h at 4° C. The supernatant which contains the cleavage product is loaded onto a 6 mL Resource Q column (Amersham Biosciences) equilibrated with ion exchange buffer (50 mM Tris/Cl pH 7.6, 150 mM NaCl, 1 mM DTT, 1 mM EDTA). The Aurora B/INCENP complex is caught as it flows through, then concentrated and loaded onto a Superdex 200 size exclusion chromatography (SEC) column equilibrated with SEC buffer (10 mM Tris/Cl pH 7.6, 150 mM NaCl, 1 mM DTT, 1 mM EDTA). Fractions which contain the AuroraB/INCENP complex are collected and concentrated using Vivaspin concentrators (molecular weight exclusion 3000-5000 Da) to a final concentration of 12 mg/mL. Aliquots (e.g. 240 ng/μL) for kinase assays are transferred from this stock solution into freezing buffer (50 mM Tris/Cl pH 8.0, 150 mM NaCl, 0.1 mM EDTA, 0.03% Brij-35, 10% glycerol, 1 mM DTT) and stored at −80° C.
Test substances are placed in a polypropylene dish (96 wells, Greiner #655 201), in order to cover a concentration frame of 10 μM-0.0001 μM. The final concentration of DMSO in the assay is 5%. 30 μL of protein mix (50 mM Tris/Cl pH 7.5, 25 mM MgCl2, 25 mM NaCl, 167 μM ATP, 10 ng Xenopus laevis Aurora B/INCENP complex in freezing buffer) are pipetted into the 10 μl of test substance provided in 25% DMSO and this is incubated for 15 min at RT. Then 10 μL of peptide mix (100 mM Tris/Cl pH 7.5, 50 mM MgCl2, 50 mM NaCl, 5 μM NaF, 5 μM DTT, 1 μCi gamma-P33-ATP [Amersham], 50 μM substrate peptide [biotin-EPLERRLSLVPDS or multimers thereof, or biotin-EPLERRLSLVPKM or multimers thereof, or biotin-[…]]) are added. The reaction is incubated for 75 min (ambient temperature) and stopped by the addition of 180 μL of 6.4% trichloroacetic acid and incubated for 20 min on ice. […]

T1 sequence (Q05397 whole entry): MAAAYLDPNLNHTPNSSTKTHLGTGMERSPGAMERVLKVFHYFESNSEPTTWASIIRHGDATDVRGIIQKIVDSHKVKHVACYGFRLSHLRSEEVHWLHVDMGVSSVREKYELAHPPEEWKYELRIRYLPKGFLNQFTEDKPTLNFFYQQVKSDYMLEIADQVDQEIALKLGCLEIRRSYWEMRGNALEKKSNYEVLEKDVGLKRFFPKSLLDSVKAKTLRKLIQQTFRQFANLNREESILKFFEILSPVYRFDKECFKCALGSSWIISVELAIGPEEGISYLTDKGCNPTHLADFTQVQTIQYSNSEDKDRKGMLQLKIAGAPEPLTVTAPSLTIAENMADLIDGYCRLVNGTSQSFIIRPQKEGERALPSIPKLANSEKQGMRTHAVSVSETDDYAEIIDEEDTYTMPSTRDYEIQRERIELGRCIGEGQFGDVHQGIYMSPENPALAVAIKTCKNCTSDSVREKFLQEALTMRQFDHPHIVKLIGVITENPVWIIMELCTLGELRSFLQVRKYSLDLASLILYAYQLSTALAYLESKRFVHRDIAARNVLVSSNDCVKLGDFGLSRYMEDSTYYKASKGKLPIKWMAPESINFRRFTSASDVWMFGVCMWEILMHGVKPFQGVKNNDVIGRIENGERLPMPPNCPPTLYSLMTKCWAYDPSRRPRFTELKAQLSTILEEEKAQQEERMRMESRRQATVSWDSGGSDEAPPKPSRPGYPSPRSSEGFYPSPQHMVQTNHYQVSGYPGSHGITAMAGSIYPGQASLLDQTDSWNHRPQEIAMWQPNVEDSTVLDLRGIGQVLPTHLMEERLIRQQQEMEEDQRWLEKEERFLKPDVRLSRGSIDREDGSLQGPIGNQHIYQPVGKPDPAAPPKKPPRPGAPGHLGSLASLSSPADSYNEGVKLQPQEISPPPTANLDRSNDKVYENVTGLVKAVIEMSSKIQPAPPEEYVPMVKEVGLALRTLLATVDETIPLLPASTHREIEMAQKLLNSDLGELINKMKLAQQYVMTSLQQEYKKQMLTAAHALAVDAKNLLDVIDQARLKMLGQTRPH
T2 sequence (Q6DE08 60-361): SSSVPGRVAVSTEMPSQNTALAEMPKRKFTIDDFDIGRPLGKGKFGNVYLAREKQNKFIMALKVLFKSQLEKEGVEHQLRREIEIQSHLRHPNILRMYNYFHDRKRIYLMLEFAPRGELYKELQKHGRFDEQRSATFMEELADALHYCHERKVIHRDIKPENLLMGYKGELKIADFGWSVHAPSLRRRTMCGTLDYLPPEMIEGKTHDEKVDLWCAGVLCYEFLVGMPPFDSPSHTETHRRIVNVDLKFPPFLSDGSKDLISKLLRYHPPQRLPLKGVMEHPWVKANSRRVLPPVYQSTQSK
T2 sequence (O13024 790-847 partner): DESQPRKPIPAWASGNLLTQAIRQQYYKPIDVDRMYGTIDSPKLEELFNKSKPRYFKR

Row | IC50 (PTK2 enzyme [1]) | IC50 (PTK2 enzyme [2]) | IC50 [3] | SMILES
1 | 0.71 nM |  |  | CNC(=O)c1cc(Nc2ncc(C(F)(F)F)c(N[C@@H]3CCCC[C@H]3NS(C)(=O)=O)n2)c(OC)cc1F [Example I-194]
2 | 1 nM |  |  | COc1cc(N2CCN(C(C)(C)C)CC2)c(Cl)cc1Nc1ncc(Cl)c(N[C@@H]2CCCC[C@H]2N(C)S(C)(=O)=O)n1 [Example I-185]
3 | 0.43 nM |  |  | COCCNC(=O)c1ccc(OC)c(Nc2ncc(C(F)(F)F)c(N[C@@H]3CCCC[C@H]3NS(C)(=O)=O)n2)c1 [Example I-181]
4 |  | 1 nM | 3360 nM | COc1cc(C(=O)NC2CCN(C)CC2)c(C)cc1Nc1ncc(Cl)c(N[C@@H]2CCCC[C@H]2N(C)S(C)(=O)=O)n1 [Example I-164]
5 | 0.44 nM |  |  | COc1ccc(C(=O)N(C)C2CCN(C)CC2)cc1Nc1ncc(C(F)(F)F)c(N[C@@H]2CCC[C@H]2N(C)S(C)(=O)=O)n1 [Example I-176]
6 | 2 nM |  |  | COc1ccc(NC(=O)C2CCN(C)CC2)cc1Nc1ncc(Cl)c(N[C@@H]2CCCC[C@H]2N(C)S(C)(=O)=O)n1 [Example I-192]
7 | 0.72 nM |  |  | COc1cc(F)c(C(=O)NC2CCOCC2)cc1Nc1ncc(C(F)(F)F)c(N[C@@H]2CCCC[C@H]2NS(C)(=O)=O)n1 [Example I-193]
8 | 0.46 nM |  |  | COc1ccc(C(=O)NC2CCN(C)CC2)cc1Nc1ncc(Cl)c(N[C@@H]2CCC[C@H]2N(C)S(C)(=O)=O)n1 [Example I-179]
9 | 0.9 nM |  |  | COc1cc(NC(C)=O)c(F)cc1Nc1ncc(C(F)(F)F)c(N[C@@H]2CCCC[C@H]2N(C)S(C)(=O)=O)n1 [Example I-159]
10 | 0.71 nM |  |  | CCc1cc(Nc2ncc(C(F)(F)F)c(N[C@@H]3CCCC[C@H]3N(C)S(C)(=O)=O)n2)c(OC)cc1N1CCN(C)CC1 [Example I-160]
11 | 10 nM |  |  | COc1ccc(NC(=O)[C@@H]2CCCN2C)cc1Nc1ncc(Cl)c(N[C@@H]2CCCC[C@H]2N(C)S(C)(=O)=O)n1 [Example I-191]
12 | 0.43 nM |  |  | COc1ccc(C(=O)NC2CCN(C)CC2)cc1Nc1ncc(C(F)(F)F)c(N[C@@H]2CCCC[C@H]2NC(C)=O)n1 [Example I-180]
13 | 1 nM |  |  | COc1cc(N2CCN(C(C)(C)C)CC2)c(C)cc1Nc1ncc(Cl)c(N[C@@H]2CCCC[C@H]2N(C)S(C)(=O)=O)n1 [Example I-184]

More lines, now with the values behind:

Row | SMILES | IC50 (PTK2 enzyme [1]) | IC50 (PTK2 enzyme [2]) | IC50 [3]
14 | COc1cc(CN(C)C)ccc1Nc1ncc(C(F)(F)F)c(N[C@@H]2CCCC[C@H]2N(C)S(C)(=O)=O)n1 [Example I-147] |  | 0.9 nM | 332 nM
15 | COCCN1CCC(NC(=O)c2cc(OC)c(Nc3ncc(C(F)(F)F)c(N[C@@H]4CCC[C@H]4N(C)S(C)(=O)=O)n3)cc2F)CC1 [Example I-130] | 0.24 nM |  | 
16 | COc1cc(CN2CCN(C)CC2)ccc1Nc1ncc(C(F)(F)F)c(N[C@@H]2CCCC[C@H]2N(C)S(C)(=O)=O)n1 [Example I-148] |  | 0.95 nM | 707 nM
17 | CCN([C@@H]1CCCC[C@H]1Nc1nc(Nc2ccc(C(=O)NC3CCN(C)CC3)cc2OC)ncc1C(F)(F)F)S(C)(=O)=O [Example I-91] |  | 1 nM | 264 nM
18 | COc1cc(C(=O)NN2CCN(C)CC2)c(F)cc1Nc1ncc(C(F)(F)F)c(N[C@@H]2CCC[C@H]2N(C)S(C)(=O)=O)n1 [Example I-136] | 0.28 nM |  | 
19 | COc1cc(C(=O)NC2CCN(C)CC2)ccc1Nc1ncc(C(F)(F)F)c(N[C@@H]2CCCC[C@H]2NS(C)(=O)=O)n1 [Example I-125, 4-[4-((1R,2R)-2-methanesulphonylamino-cyclohexylamino)-5-trifluoromethyl-pyrimidin-2-ylamino]-3-methoxy-N-(1-methyl-piperidin-4-yl)-benzamide] |  | 0.93 nM | 257 nM
20 | COCCNC(=O)c1cc(OC)c(Nc2ncc(C(F)(F)F)c(N[C@@H]3CCCC[C@H]3N(C)S(C)(=O)=O)n2)cc1C [Example I-133] |  | 0.91 nM | 2190 nM
21 | COc1cc(N2CCN(C)CC2)c(Cl)cc1Nc1ncc(C(F)(F)F)c(N[C@@H]2CCC[C@H]2N(C)S(C)(=O)=O)n1 [Example I-139] | 0.49 nM |  | 
22 | COc1cc(C(=O)NC2CCN(C)CC2)ccc1Nc1ncc(C(F)(F)F)c(N[C@@H]2CC=CC[C@H]2N(C)S(C)(=O)=O)n1 [Example I-151] | 0.67 nM |  | 
